Results: patent US8178578B2, “Chemical compounds” (The University of Manchester, priority 2006, dated 2012)

What was measured:
[1] = system: K562 human chronic myelogenous leukaemia cell line; test: Test (a): growth inhibitory activity, MTT assay; assay type: cell-based; conditions: 120 h, K562 cells, 5 days incubation, read-out: IC50 - Assay (a), concentration to inhibit 50% cell proliferation
Description: The compounds of the present invention were tested in test (a) for growth inhibitory activity (IC50) against the K562 human chronic myelogenous leukaemia cell line using a MTT assay generally as described in Tada, H., Shiho, O., Kuroshima, K., Koyama, M., Tsukamoto, K., J. Immunol. Methods 1986, 93, 157 and Edmondson, J. M., Armstrong, L. S., Martinez, A. O., J. Tissue Culture Methods 1988, 11, 15. Cells were cultured in Roswell Park Memorial Institute (RPMI) medium, free of antibiotics and containing L-glutamine ([…]), supplemented with 10% foetal calf serum. A single suspension of the K562 cell line was tested from an exponentially growing culture. The cells were counted using a haemocytometer, and diluted to 5×10^3/ml.
A compound of the present invention was dissolved in dimethylsulfoxide (DMSO) at a concentration of 50 μM and 4 μl of the DMSO solution was added to the cell suspension (4 ml). 1 ml of this solution was added to a further 1 ml of cell solution in a neighbouring tube, giving a compound half that of the initial dilution. The dilutions were continued in the same manner affording seven samples at different concentrations. One cell solution was left compound free as a control. Treated cells (200 μl) were pipetted in triplicate into a 96-well plate and incubated at 37° C. in a 5% CO2 in air atmosphere for 5 days. After this time, the plate was removed from the incubator and a solution of (3-(4,5-dimethylthiazol-2-yl)-2,5-diphenyltetrazolium bromide (MTT) (50 μl, 3 mg/ml in phosphate buffered saline (PBS)) was added to each well. After a further 3 hour incubation period under the same conditions, the medium was carefully removed from each well by suction and the resulting formazan precipitate was dissolved in DMSO (200 μl). The optical density of each well was then read (540 nm) using a Titretek Multiscan MCC/340 platereader. After processing and analysis through the application of an ‘in-house’ software package, the results obtained enabled the calculation of the drug dose required to inhibit cellular growth by 50% (GI50 or IC50 value).

tubulin = test: Test (b): inhibition of tubulin assembly; assay type: biochemical; conditions: absorbance at 350 nm over 20 minutes, 37° C.; read-out: IC50 - Assay (b), concentration for 50% inhibition of tubulin assembly
Description: The compounds of the present invention were also tested in assay (b) for their ability to inhibit tubulin assembly generally as described in McGown and Fox, “Structural and biochemical comparison of the anti-mitotic agents colchicine, combretastatin A-4 and amphethinile” Anti-Cancer Drug Design, 3, 249, 1989.
Samples were prepared in quartz cuvettes at 0° C. and contained 2-morpholinoethanesulfonic acid (MES) buffer (740 μl, 0.1 M MES, 1 mM ethylene glycol tetraacetic acid (EGTA), 0.5 mM MgCl2, pH 6.6), a compound of the present invention (10 μl, 1 mM in DMSO), tubulin (150 μl, 1/4 dilution of neat tubulin in MES buffer) and GTP (100 μl, 10 mM). The overall concentration of the compound in solution was therefore 10 μM. The cell was mixed well, dried and immediately placed in a Varian Cary 1 UV/Visible spectrophotometer, preheated to 37° C., along with a control sample containing MES buffer (740 μl), guanosine triphosphate (GTP) (100 μl, 10 mM), tubulin (150 μl, concentration as before) and DMSO (10 μl). The absorbance at 350 nm was recorded over a period of 20 minutes. The results were compared with the untreated control experiment to assess the relative degree of change in optical density. If assembly was less than 50% of that of the control, the experiment was repeated using decreasing concentrations (from 1 mM) of the compound in order to determine the activity.

[2] = system: DLD-1 tumours (colon carcinomas); test: Test (c): in vivo functional vasculature study with Hoechst 33342; design: species or system mice; conditions: single intraperitoneal dose at believed maximum tolerated dose
Description: The compounds of the present invention were also tested in in vivo functional vasculature studies using the fluorescent DNA-binding compound Hoechst 33342 (H33342)
Twenty-eight mice were used for test (c). The tumours used were colon carcinomas (DLD-1). Once the tumours reached a suitable size, mice were randomised and assigned into 10 groups with one control group and 3 groups for each compound to be tested (referred to as a “drug group”). Mice in a drug group were treated intraperitoneally with a single dose of a compound of the present invention at a dose believed to be the maximum tolerated dose for each compound being tested (the maximum tolerated dose being measured by dosing mice with increasing amounts of compound (normally doubling the previous dose) until it is either fatal or the animal suffers substantial weight loss or has become distressed). The dose for the compound of Example 1 was 60 mg/kg, for the compound of Example 2 was 120 mg/kg and for the compound of Example 3 was 270 mg/kg. The control group was untreated. H33342 was then injected intravenously at 40 mg/kg to the treated mice 4, 8 and 24 hours after administration of a compound of the present invention and after 24 hours to the untreated control mice. After one minute, each mouse was killed by cervical dislocation and the tumours were removed. Following this procedure the H33342 is confined to the nuclei of cells adjacent to the blood vessels. The tumours were wrapped in aluminium foil and immediately snap-frozen in liquid nitrogen and then stored at −80° C. until required for sectioning. For assessment of tumour vasculature, 10 μm-thick sections were cut using a cryostat (Leica, CM 1100, Scientific Laboratory Supplies, UK) with intervals between sections of 200 μm. The sections were placed on glass slides and allowed to air dry before viewing under a light microscope using UV illumination. Functional vascular volume was quantified using a point scoring system as described previously (Cowen S. E., Bibby M. C., Double J. A., Characterisation of the vasculature within a murine adenocarcinoma growing in different sites to evaluate the potential of vascular therapies, Acta Oncologica, 1995, 34, 357-60). Using a graticule with 22×16 grids, points crossing areas of fluorescence were counted as positive points. The total number of positive points was used to calculate the percentage of functional vasculature. Five sections per tumour and 5 fields per section were examined for tumours.
The results of test (c) are shown in FIG. 1, which is a graph showing relative percentage of control functional vasculature in the DLD-1 tumours after treatment with the compounds of Examples 1, 2 and 3 at doses of 60, 120 and 270 mg/kg respectively. Each point plotted in the graph of FIG. 1 represents the mean percentage of control functional vasculature for each time-point.

[3] = Maximum tolerated dose by dose escalation in mice; conditions: mouse, in vivo, ip, single intraperitoneal dose, read-out: dose believed to be the maximum tolerated dose

| melting point | Compound | IC50 [1] | IC50 (tubulin) | functional vasculature in DLD-1 tumours compared to control tumours ([2]; 4 hours post-treatment) | functional vasculature in DLD-1 tumours compared to control tumours ([2]; 8 hours post-treatment) | functional vasculature in DLD-1 tumours compared to control tumours ([2]; 24 hours post-treatment) | MTD [3] |
| --- | --- | --- | --- | --- | --- | --- | --- |
| 164 °C | COc1ccc2c(c1OS(=O)(=O)C(F)(F)F)COCc1cc(OC)c(OC)c(OC)c1-2 [Example 7, 3,9,10,11-Tetramethoxy-5,7-dihydrodibenzo[c,e]oxepin-4-yl trifluoromethanesulfonate] |  |  |  |  |  |  |
| 145 °C | COc1cc2c(c(OC)c1OC)-c1ccc(N)cc1COC2 [Example 6, 9,10,11-Trimethoxy-5,7-dihydrodibenzo[c,e]oxepin-3-amine] |  |  |  |  |  |  |

The next lines start with the molecule.

| Compound | melting point | IC50 [1] | IC50 (tubulin) | functional vasculature in DLD-1 tumours compared to control tumours ([2]; 4 hours post-treatment) | functional vasculature in DLD-1 tumours compared to control tumours ([2]; 8 hours post-treatment) | functional vasculature in DLD-1 tumours compared to control tumours ([2]; 24 hours post-treatment) | MTD [3] |
| --- | --- | --- | --- | --- | --- | --- | --- |
| COc1ccc2c(c1OP(=O)([O][Na+])[O][Na+])COCc1cc(OC)c(OC)c(OC)c1-2 [Example 4, 3,9,10,11-Tetramethoxy-5,7-dihydrodibenzo[c,e]oxepin-4-yl disodium phosphate] |  | 0.23 nM | 700 nM |  |  |  |  |
| COc1cc2c(c(OC)c1OC)-c1cc3c(cc1COC2)OCO3 [Example 2, 5,7-Dihydro-1,2,3-trimethoxybenzo[d][1,3]dioxolo[4,5-h][2]benzoxepin] |  |  |  | no difference | no difference | significant functional vasculature decrease | 120 mg/kg |
| COc1cc2c(c(OC)c1OC)-c1ccc([N+](=O)[O-])cc1COC2 [Example 5, 1,2,3-Trimethoxy-9-nitro-5,7-dihydrodibenzo[c,e]oxepine] | 161 °C |  |  |  |  |  |  |
| COc1ccc2c(c1)COCc1cc(OC)c(OC)c(OC)c1-2 [Example 1, 1,2,3,9-Tetramethoxy-5,7-dihydrodibenzo[c,e]oxepine] |  | 110 nM | 5700 nM |  | significant decrease | significant decrease | 60 mg/kg |
| COc1ccc2c(c1N)COCc1cc(OC)c(OC)c(OC)c1-2 [Example 9, 3,9,10,11-Tetramethoxy-5,7-dihydrodibenzo[c,e]oxepin-4-amine] |  | 2 nM | 900 nM |  |  |  |  |
| COc1ccc2c(c1O)COCc1cc(OC)c(OC)c(OC)c1-2 [Example 3, 3,9,10,11-Tetramethoxy-5,7-dihydrodibenzo[c,e]oxepin-4-ol] |  | 33.9 nM | 800 nM | dramatically decreased | restored back to above control level | significantly decreased | 270 mg/kg |
